Read-outs that look alike come from different tables or passages of the source.
Legend:
[1] = Fluorescence turn-on sensing and titration of silver ions; details: for ratio [Ag^+]:[probe] at which PL intensity is saturated / maximum: probe 5 μM; for LOD (limit of detection) of silver ions / Linear Range of silver ion detection: probe 5 μM in DI-water, excitation 345 nm
Excerpt: The turn-on fluorescence response was instant. The detection of silver ions was highly sensitive and sharp intensity changes could be detected with the naked eye. DLS (Dynamic light scattering) measurement confirmed the formation of nanoparticles. […] This is likely due to the reduction of silver-tetrazole complexes by the strong electron-beam during TEM studies. These emissive silver-compound solid complexes are hardly soluble in a range of solvents, including DMSO, methanol, and water. NMR analysis of these complexes is not possible. The complexes are also resistant to acid/base treatment, or heating by a heat-gun.
In fluorescence spectroscopy, solutions containing silver ions behaved quite differently from solutions without silver ions in terms of intensity, with the ratio of intensity at maximum peak at 504 nm exceeding 400 times (FIGS. 3A-3D). […] By plotting the intensity of maximum intensive peaks against the ratio of ion concentrations, it was expected that the working curve for the quantitative detection of silver ions could be established. […] Meanwhile, the detection limit (LOD) of silver ions is estimated to be 40 nM (S/N=3 and n=11). With a further increase of [Ag^+], the intensity reaches a plateau.
Tetrazole-tagged AIE luminogen TPE-4TTZ (5 μM) undergoes a fluorescence turn-on response towards a solution of silver ions. The solutions can include organic solutions, aqueous solutions including natural water, wastes and/or biological buffer solutions. PL spectra were recorded on a Perkin-Elmer LS 55 spectrofluorometer.
The solutions included organic solutions, aqueous solutions including natural water, wastes and/or biological buffer solutions. For the same probes, the calibration curve varied a little in different solutions. UV spectra were measured on a Biochrom Libra S80PC double beams spectrometer. PL spectra were recorded on a Perkin-Elmer LS 55 spectrofluorometer.

[2] = Fluorescent quantum yield in solid state and in solution; type: physicochemical; details: solid state
Experimental: (§1) The present compounds are strongly emissive in the solid state with good fluorescent quantum yields. The compounds are weakly emissive or non-emissive when dissolved in aqueous solutions. […] In contrast, when these compounds are dissolved, the solutions only emit faint light (Qy<1%). The compounds dissolve well in alcohols. The compounds can be modestly dissolved (for TPE-4TTZ, up 100 μM in DI-water) in the aqueous phase. Furthermore by the addition of NaOH solutions, the formed salts dissolve well in the aqueous phase (for TPE-4TTZ, up to 1 M in water).

[3] = pH dependence of Ag^+ induced fluorescence in phosphate buffer; details: phosphate buffer solutions
Excerpt: (§2) The Ag^+/Hg^2+ coordination-induced fluorescence can be pH-sensitive. For example, with respect to TPE-4TTZ, a series of tests were done in phosphate buffer solutions at different pH varying from 4 to 12. At pH lower than 4, the tetrazole moiety (pKa˜4-5) was largely in the protonated form and sparingly soluble in solution and, thus, aggregated. The aggregation elicited fluorescence with a different color from that of the silver complexes. Therefore, the turn-on detection is only possible in solutions with pH>4. When pH is from 5˜6, PL response is significant enough for a high resolution detection of silver ions. […] Furthermore regarding the mercury detection, the FL response was significant only at the pH window (4˜7); when pH>8, the fluorescence turn-on was not observed anymore. Thus, TPE-4TTZ is only sensitive to silver ions in basic solutions. Similar observations were made for the other tetrazole-tagged TPEs.

[4] = Solubility in the aqueous phase; type: physicochemical
Experimental: as §1

[5] = Selectivity: fluorescence response to mercury ions
Excerpt: (§3) As selectivity is an important parameter for sensing technique, responses of these probes to other metal ions were examined. […] Mercury is reported to coordinate with the tetrazole group.
as §2, with “pH>4.” for “pH>4. When pH is from 5˜6, PL response is significant enough for a high resolution detection of silver ions.”, “Thus, TPE-4TTZ is only sensitive to silver ions in basic solutions. Similar observations were made for the other tetrazole-tagged TPEs.” left out
With reference to FIG. 7, tetrazole-tagged AIE luminogen TPE-4TTZ (10 μM) underwent a fluorescence turn-on response towards a solution of silver ions in the presence of other metal ions in phosphate aqueous solution (10 mM, pH 7.4). PL spectra were recorded on a Perkin-Elmer LS 55 spectrofluorometer. Tetrazole-tagged AIE luminogen TPE-4TTZ (10 μM) underwent a fluorescence turn-on response towards a solution of silver ions in the presence of other silver-binding molecules in phosphate aqueous solution (10 mM, pH 7.4). […]

[6] = cited from earlier work
[7] = Interference of silver-binding reagents with silver sensing; details: TPE-4TTZ 5 μM, anions 100 equiv.
Experimental: Detection can be based on selective coordination involving electrostatic interactions. Tests were conducted to determine whether silver binding moieties (e.g., anions) might be another kind of interfering factor in the mixture. […] After a short while of shaking, the probe (10 eq.) was added. Each solution was gently mixed and then checked in a PL machine. Compared with the control group, the interfering reagents including amino acids and DNA/RNA bases were only weakly interfering with the silver-tetrazole sensing process. In other words, the tetrazole anions can snatch silver ions from these ligands and elicit a fluorescence turn-on. There were exceptions, in particular for strong silver-interacting structures. Cysteine, the sulfur-containing amino acid, blocked sensing by the strong S—Ag interaction. Similar results were seen from SCN^− and S2O3^2-, due to their stronger binding affinity towards Ag^+ than the tetrazole anion (CN4^−). In addition, ammonium solution blocked sensing by reducing Ag^+ into metallic silver.
With reference to FIG. […] PL spectra were recorded on a Perkin-Elmer LS 55 spectrofluorometer. […] In each example, the silver-binding molecule was added prior to the addition of the probes from a stock solution. The stock solution of the probe is 1 mM in ethanol. PL spectra were recorded on a Perkin-Elmer LS 55 spectrofluorometer.

[8] = Selectivity: fluorescence response to other metal ions
Experimental: as §3
With reference to FIG. 7, tetrazole-tagged AIE luminogen TPE-4TTZ (10 μM) underwent a fluorescence turn-on response towards a solution of silver ions in the presence of other metal ions in phosphate aqueous solution (10 mM, pH 7.4). PL spectra were recorded on a Perkin-Elmer LS 55 spectrofluorometer. Tetrazole-tagged AIE luminogen TPE-4TTZ (10 μM) underwent a fluorescence turn-on response towards a solution of silver ions in the presence of other silver-binding molecules in phosphate aqueous solution (10 mM, pH 7.4). In each example, the silver-binding molecule was added prior to the addition of the probes from a stock solution. The stock solution of the probe is 1 mM in ethanol. PL spectra were recorded on a Perkin-Elmer LS 55 spectrofluorometer.

[9] = phosphate aqueous solution 10 mM, pH 7.4

c1ccc(C(=C(c2ccc(-c3nnn[nH]3)cc2)c2ccc(-c3nnn[nH]3)cc2)c2ccccc2)cc1 [TPE-2TTZ]
ratio [Ag^+]:[probe] at which PL intensity is saturated / maximum [1]: 2.6
LOD (limit of detection) of silver ions [1]: 3.0 nM
Linear Range of silver ion detection [1]: 0.2~10 μM
fluorescent quantum yield (Qy) [2]: 36.2%

c1cc(-c2nnn[nH]2)ccc1C(=C(c1ccc(-c2nnn[nH]2)cc1)c1ccc(-c2nnn[nH]2)cc1)c1ccc(-c2nnn[nH]2)cc1 [TPE-4TTZ]
pH at which maximum PL response to silver is relatively stable [3]: > 6
pH at which turn-on detection of silver is possible ([3]; pH 4 to 12): > 4
fluorescence response on addition of silver ions ([1]; TPE-4TTZ 5 μM, silver ions 500 μM, UV 350 nm): highly emissive
ratio [Ag^+]:[probe] at which PL intensity is saturated / maximum [1]: ~4
LOD (limit of detection) of silver ions [1]: 2.3 nM
Linear Range of silver ion detection [1]: 0.04~15 μM
solubility ([4]; deionised water, DI-water, read-out: solubility in the aqueous phase): ≤ 0.1 mM
solubility ([4]; water with added NaOH solution, aqueous buffer, water, after addition of NaOH solution, read-out: solubility of the formed salt in the aqueous phase): ≤ 1000 mM
PL response to mercury ions [5, 9]: significant enhancement of PL intensity
pH window with significant FL response to mercury ([5]; phosphate buffer solutions, pH 4 to 12): 4˜7
pKa of tetrazole moiety [6]: 4-5
fluorescent quantum yield (Qy) [2]: 76.8%
fluorescence on mixing with different anions without Ag^+ [7]: did not generate strong fluorescence
PL response to Mg^2+, Mn^2+, Zn^2+, Al^3+ etc. [8, 9]: hardly increased the PL intensity
effect of Fe^2+, Fe^3+, Co^2+ and Cu^2+ on fluorescence ([8]; same conditions): quench the weak fluorescence

c1ccc(C(=C(c2ccccc2)c2ccc(-c3nnn[nH]3)cc2)c2ccccc2)cc1 [TPE-1TTZ]
ratio [Ag^+]:[probe] at which PL intensity is saturated / maximum [1]: 0.6
LOD (limit of detection) of silver ions [1]: 1.5 nM
Linear Range of silver ion detection [1]: 0.1~3 μM
fluorescent quantum yield (Qy) [2]: 39.6%
